The source of these data is patent US12686855B2, “Generation of pancreatic endoderm from stem cell derived definitive endoderm” (ASPECT BIOSYSTEMS LTD., priority 2019, dated 2026).

In assay [1] the target is T1, RARγ (Homo sapiens, UniProt P13631).
T1 sequence (P13631 1-454): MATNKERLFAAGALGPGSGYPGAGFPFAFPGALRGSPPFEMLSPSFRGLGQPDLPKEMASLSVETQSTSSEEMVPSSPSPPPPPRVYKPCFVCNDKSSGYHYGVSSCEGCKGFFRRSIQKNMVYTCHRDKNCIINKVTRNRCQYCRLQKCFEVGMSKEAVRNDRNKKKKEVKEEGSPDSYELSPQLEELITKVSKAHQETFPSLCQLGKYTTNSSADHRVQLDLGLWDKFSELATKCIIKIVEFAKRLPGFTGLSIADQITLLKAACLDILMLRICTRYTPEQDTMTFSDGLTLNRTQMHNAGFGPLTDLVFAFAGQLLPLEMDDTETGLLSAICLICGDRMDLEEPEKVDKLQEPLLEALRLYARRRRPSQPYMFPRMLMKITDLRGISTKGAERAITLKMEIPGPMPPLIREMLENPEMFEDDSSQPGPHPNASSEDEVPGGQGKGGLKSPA
As to conditions: cited from earlier work.

In assay [2] the target is T2, RARα (Homo sapiens, UniProt P10276).
T2 sequence (P10276 1-462): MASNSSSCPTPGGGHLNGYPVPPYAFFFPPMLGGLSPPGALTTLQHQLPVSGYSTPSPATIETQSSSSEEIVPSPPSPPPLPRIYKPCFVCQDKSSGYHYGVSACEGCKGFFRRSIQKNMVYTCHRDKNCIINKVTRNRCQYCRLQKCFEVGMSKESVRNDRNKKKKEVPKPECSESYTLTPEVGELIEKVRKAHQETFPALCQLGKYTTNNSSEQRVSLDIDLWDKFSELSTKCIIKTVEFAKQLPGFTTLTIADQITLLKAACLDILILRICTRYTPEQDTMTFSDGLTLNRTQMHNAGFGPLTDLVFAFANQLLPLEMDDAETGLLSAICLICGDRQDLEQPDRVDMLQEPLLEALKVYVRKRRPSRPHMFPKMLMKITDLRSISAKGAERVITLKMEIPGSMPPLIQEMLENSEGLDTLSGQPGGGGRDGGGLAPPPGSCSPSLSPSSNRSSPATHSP
The conditions noted are these: RARα transfected CV-1 cells; equal molar AGN 193109 against ATRA; cited from earlier work.

For assay [3], the system named is differentiated cells at the beta cell stage. Description: Transplantation of differentiated cells at the beta cell stage, immunohistochemistry and quantitative image analysis. It is filed as in vivo. As to conditions: 8 weeks after transplantation.
In assay [4] the test system is definitive endoderm cells derived from human pluripotent stem cells (hES line SA121). Description: Differentiation of definitive endoderm to pancreatic endoderm, flow cytometry (FACS) at PE stage. It is filed as cell-based. As to conditions: PE10. Background: A flow cytometer gives signals particle by particle.
Assay [5] deals with human ES cell or human iPS cell derived PE clusters. Description: Further differentiation of PE clusters to beta cell like cells, flow cytometry on Cpep/Nkx6.1 and glucagon. It is filed as cell-based. As to conditions: for Cpep/Nkx6.1 double positive: extended in vitro culture. From the text: The human ES cell or human iPS cell derived PE clusters are washed and further differentiated to endocrine progenitors (EP) and beta cell like cells (BC), using protocols for endocrine and beta cell induction, as described in WO2015/028614, WO2017/144695 and WO/2019/048690, which are all incorporated herein by reference in their entirety.
At the end of BC differentiation clusters were sampled, dissociated to single cells with TrypLE-Select (Gibco 12563-011), fixed in 10% formalin, stained with Cpep/Nkx6.1 and glucagon and analyzed by flow cytometry.

In assay [6] the target is T1, RARγ. As to conditions: RARγ transfected CV-1 cells; equal molar AGN 193109 against ATRA; cited from earlier work.
The subject of assay [7] is definitive endoderm cells derived from human pluripotent stem cells (hES line SA121). Description: Differentiation of definitive endoderm to pancreatic endoderm, gene expression analysis (Nanostring) on PE10. It counts as cell-based. As to conditions: treatment on PE2-3, vs standard protocol. Here is the method:
(§1) Human embryonic stem (hES) cells line SA121 (Cellectis) are expanded in DEF-CS culture medium (Takara BIO Europe) in fibronectin (Sigma) coated culture flasks (Corning) with 30 ng/ml bFGF (Peprotech) and 10 ng/ml noggin (Peprotech). Cells are single cell passaged with 10 μM Rock inhibitor Y-27632 (Sigma #Y0503) and seeded in shaker flasks or bioreactors (DASBOX, DASGIP, Eppendorf) at a density of 0.5-1 mio/ml and allowed to form clusters under constant stirring conditions.
(§2) After 1-3 days in DEF-CS medium with daily medium change, the clusters are differentiated to DE as described in WO2012/175633 (which is incorporated herein by reference in its entirety). The cell clusters are washed once in RPM11640 (Gibco #61870) and treated with 2-7 μM CHIR99021 (Axon #1386) in RPM11640. After 24 hours the cells were washed with RPM11640 and treated with 25-100 ng/ml Activin A (Peprotech #120-14E) and 2% B27 (Invitrogen #17504-044) in RPM11640 for 3 days with medium change every 24 or 48 hours. Cells are maintained at 37° C. and 5% CO2 in a humidified shaker incubator (Infors) during the differentiation to DE, or in a bioreactor system (DASBOX, DASGIP, Eppendorf).
(§3) Medium was changed daily or every other day. At the end of PE differentiation clusters were analysed by flow cytometry or gene expression analysis (Nanostring). 10 μM AGN193109 (Tocris 5758) was added to the LDN stage of PE differentiation, whereas the remaining part of the protocol was unchanged.

Assay [8] has the same test system. Description: Differentiation of definitive endoderm to pancreatic endoderm, flow cytometry (FACS) at PE stage. It is filed as cell-based. Here is the method: as §1, §2, §3
The target of assay [9] is T3, RARβ (Homo sapiens, UniProt P10826).
T3 sequence (P10826 1-455): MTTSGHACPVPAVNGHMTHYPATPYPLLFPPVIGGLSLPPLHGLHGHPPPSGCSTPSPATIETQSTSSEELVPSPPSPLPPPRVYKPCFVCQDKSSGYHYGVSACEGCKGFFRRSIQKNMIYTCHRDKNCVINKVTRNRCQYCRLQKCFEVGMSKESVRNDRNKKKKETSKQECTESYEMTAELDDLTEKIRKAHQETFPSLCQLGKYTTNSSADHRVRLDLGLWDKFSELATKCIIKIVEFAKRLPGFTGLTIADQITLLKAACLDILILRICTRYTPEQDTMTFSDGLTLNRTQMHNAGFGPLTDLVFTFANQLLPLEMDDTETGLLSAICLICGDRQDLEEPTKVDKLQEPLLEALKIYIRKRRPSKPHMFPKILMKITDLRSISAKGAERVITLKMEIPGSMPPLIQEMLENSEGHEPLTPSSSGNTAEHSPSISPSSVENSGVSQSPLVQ
As to conditions: cited from earlier work.

Assay [10] addresses T2, RARα. As to conditions: cited from earlier work.
Assay [11] concerns the target T3, RARβ. As to conditions: RARβ transfected CV-1 cells; equal molar AGN 193109 against ATRA; cited from earlier work.
Where [12] appears, read: treatment on PE2-3, PE10, standard protocol 52%, FIG. 4.

Turning to `Cc1ccc(C2=CCC(C)(C)c3ccc(C#Cc4ccc(C(=O)O)cc4)cc32)cc1` [AGN193109], the equilibrium dissociation constant (Kd) in assay [1], in assay [9] and in assay [10] was 2 nM throughout. Also, the “antagonism of ATRA-induced transcription” value is recorded as 85% in assay [2], 100% in assay [6] and 62% in [11]. In addition, the “beta to alpha cell ratio (fraction of insulin positive cells relative to glucagon positive cells)” value in assay [3] was “higher”. In addition, the “Pdx1-only positive cells with increasing concentrations” value in assay [4] (1, 3 and 10 μM on PE2-3, FIG. 5A) is on record as “decrease”. In addition, in assay [4] (PE2-3, FIG. 5B), the “effect of increasing the concentration from 10 μM to 20 μM on PE induction” value was “no additional effect”. Moreover, the “dose dependence of effect on Pdx1/Nkx6.1 double positive cells” value in assay [4] (range from 0.5 μM to 20 μM on PE2-3) is listed as “dose-responsive”. Further, the “Cpep/Nkx6.1 double positive beta like cells” value in assay [5] (AGN193109 in LDN stage (PE2-3), BC6-9, standard around 35%) is recorded as “around 50%”. Besides, in assay [5] (AGN193109 in LDN stage, BC stage, FIG. 7B), the Glucagon positive cells result is on record as “not accompanied by an increase”. The Cpep/Nkx6.1 double positive came to 59% in [5] (BC day 6, standard protocol 53%) and 57% in [5] (BC day 13, standard protocol 27%). In addition, in [7], the CPA1 expression result is “increase”. Moreover, the DLK1 expression entry in assay [7] is listed as “increase”. The NeuroD expression entry in assay [7] was “lower expression”. Further, the Ngn3 expression result in [7] is given as “lower expression”. For the same compound, in [7], the PTF1A expression entry is given as “increase”. Besides, the Pdx1/Nkx6.1 double positive result in assay [8] (10 μM for last 2 days of LDN stage (PE2-3), PE10, standard condition around 40%, FIGS. 1A,B) is on record as “at least 70%”; in assay [8] (1 L bioreactors (DASgip, Eppendorf), 10 μM on PE2-3, PE10, standard protocol 58.4%, not run in parallel) it was 82.2%; in assay [8] (setting [12]), 76.9%. The “Pdx1/Nkx6.1 double negative cells” value in assay [8] (10 μM on PE2-3, PE10) is listed as “less than 10%”. Besides, in assay [8] (10 μM, PE10, FIG. 6A), the “effect on PE induction (Pdx1/Nkx6.1 double positive) of extending addition from 2 to 4 days in the LDN stage” value is listed as “without any negative effect”. Moreover, the “DLK1 expressing pancreatic endoderm (flow cytometry)” value in assay [8] (added on PE2-3, PE11, standard 13%) was found to be 31%. In addition, the “Pdx1/Nkx6.1 double positive cells” value in [8] (rescue of suboptimal PE differentiation, standard 20%, PE10) amounted to 75%. Moreover, in assay [8] (treatment on PE2-3, PE10, control 2.9%), the “percentage of Nkx2.2 positive cells at the PE stage” value is “less than 1%”.
For AM580, in assay [7], the DLK1 expression result is reported as “marked down regulation”, the NeuroD expression result is on record as “marked increase”, the Ngn3 expression result is “marked increase” and the Nkx6.1 expression result is “marked down regulation”. In addition, the PTF1A expression result in assay [7] is recorded as “marked down regulation”. Further, in assay [8] (setting [12]), the Pdx1/Nkx6.1 double positive is ~ 14%.

One may read the Kd as the equilibrium constant for the complex coming apart.
